In patent US20140377340A1, “HLA-DR BINDING PEPTIDES AND THEIR USES” (priority 2007, published 2014):

Legend:
[1] = system: peptide-specific T cells in PBMC; test: 10-day interferon-gamma ELIspot with PBMC of breast or ovarian cancer patients and healthy controls; assay type: cell-based, human; conditions: fraction of breast or ovarian cancer patients with mean T cell values above cutoff (mean + 2 SD of healthy donors)
Excerpt: Each panel represents a unique peptide and each data point is derived from one individual. The grey box (i.e. cutoff) delineates the region that constitutes the mean and two standard deviations calculated from the normal healthy individuals. The percentages represent the fraction of patients that had mean T cell values above the cutoff. The peptides that are circled are those in which a higher fraction of the patients responded compared to the normal healthy controls. These peptides are considered to be the best vaccine candidates. However, it is clear that the rigidness of this approach could potentially result in many false negatives. […] Despite this, we identified 5 candidates to move forward. The fidelity of this approach is evident from a prior study which has already shown that a HER-2/neu peptide, p884-899, which encompasses the binding motif of p885, is an HLA-DR4 epitope.
Enzyme-linked immunosorbent spot assay. A 10-day ELlspot for detecting low-frequency T cells was used to determine reactivity to the tumor antigen peptides (Table 1) as described (Knutson K L et al. J Clin Onc 2006;24: 4254-61). […] PMA/Ionomycin and the CEF pool were used as positive non-tumor related controls as previously described (Knutson, 2006).
Using predictive algorithms discussed above, candidate HLA-DR1-binding epitopes were identified. […] An interferon-gamma ELIspot assay was used to assess immunity to the indiscriminate binding peptides in 48 patients with either breast or ovarian cancer and 18 healthy controls.
Using an ELlspot assay with a limit of detection of approximately […], patient-derived PBMC were screened for reactivity against all of the HLA-DR binding peptides.

[2] = system: short term T cell lines from breast or ovarian cancer patients; test: IFN-γ ELISpot analysis of short term T cell lines (peptide versus protein fragment; natural processing); assay type: cell-based, human; conditions: T cell lines respond to culture peptide and to protein fragment; FIGS. 5 and 6
Excerpt: IFN-γ ELISpot analysis of short term T cell lines generated against HER-2/neu peptides, p53 (Panel A), p83 (Panel B), p88 (Panel C) and p885 (Panel D). […] Each bar is the mean (s.e.m.) of three replicates.
FIG. 6 is identical to FIG. 5 except that the results were obtained using IGFBP-2 derived helper epitopes.

[3] = system: 15 different HLA-DR molecules; test: HLA-DR binding assays, panel of 15 different HLA-DR molecules (breadth of binding); conditions: number of the 15 HLA-DR molecules bound (binders: 1000 nM or better)
purified HLA DRB1*0901 = biological target: T1, purified HLA DRB1*0901 (Homo sapiens, UniProt P01903+P01911, A100R/A103E/D57H/D86V/F55Y/F60I/F76Y/I96F/K127E/L162R/M171V/P40D/Q125H/Q99R/R33Q/R42F/S133A/S66N/T210M/V115G/W38K/Y107V/Y59G/Y89S); test: HLA-DR radioligand binding inhibition assay, DRB1*0901; conditions: read-out: IC50 nM purified HLA DRB1 *0901; purified HLA DRB1*0901
T1 construct: purified from EBV transformed homozygous cell lines or single MHC allele transfected 721.221, C1R, or fibroblast lines; made in house
Protocol: Instead, wells of an opaque white 96-well Optiplate (Packard) are coated with 3 μg (100 μl@ 30 μg/ml) of HLA-specific antibody (Ab) that “capture” complexes of radiolabeled MHC and unlabeled peptide transferred from the molecular binding assay plate in 100 μl of 0.05% NP40/PBS. After a 3-hour incubation period, the supernatant is decanted and scintillation fluid (Microscint 20) added. Captured complexes are then measured on a microplate scintillation and luminescence counter (TopCount NXTTM; Packard).
HLA-DR purification. Fifteen distinct HLA-DR molecules were used in quantitative assays to measure the binding of peptides to solubilized HLA-DR molecules. […] Briefly, columns of inactivated Sepharose CL4B and Protein A Sepharose were used as pre-columns. HLA-DR molecules were captured by passage of lysates over LB3.1 monoclonal antibody (anti-HLA-DRA) columns. Antibody columns were washed with 10 mM Tris-HCL, pH8.0 with 1% (v/v) NP-40, followed by PBS containing 0.4% (w/v) n-octylglucoside.
Briefly, 1-10 nM of radiolabeled peptide was co-incubated for 2 days at either room temperature or 37° C. with 1 μM to 1 nM purified HLA-DR molecules in the presence of a cocktail of protease inhibitors. Assays were performed at various pH conditions, ranging from pH 4 to pH 7. […] After incubation, the percentage of HLA-DR-bound radioactivity is determined by capturing HLA-DR/peptide complexes on Optiplates (Packard Instruments, Meriden, Conn.) coated with the LB3.1 antibody and determining bound counts per minute using the TopCount microscintillation counter (Packard Instruments).

purified HLA DRB1*1302 = biological target: T2, purified HLA DRB1*1302 (Homo sapiens, UniProt P01903+P01911, A100E/A169T/K41T/L162R/M171V/P40S/Q125H/Q178H/Q39Y/Q99D/R42S/S66N/T262R/V115G/W38E/Y61H); test: HLA-DR radioligand binding inhibition assay, DRB1*1302
T2 construct: purified from EBV transformed homozygous cell lines or single MHC allele transfected 721.221, C1R, or fibroblast lines; made in house
In short: (§1)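 First, HLA-DR was purified from lysates on LB3.1 columns. Then 1 μM to 1 nM protein was incubated 2 days with 1-10 nM radiolabeled peptide at pH 4 to 7. Finally, complexes were captured for 3 hours and bound cpm determined.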

purified HLA DRB1*0101 = biological target: T3, purified HLA DRB1*0101 (Homo sapiens, UniProt P01903+P01911, A100R/D57E/F55L/F60I/F76Y/I96L/L162R/M171V/P40L/Q125E/R42F/V115G/Y59C); test: HLA-DR radioligand binding inhibition assay, DRB1*0101; conditions: read-out: IC50 nM purified HLA DRB1 *0101; purified HLA DRB1*0101
T3 construct: purified from EBV transformed homozygous cell lines or single MHC allele transfected 721.221, C1R, or fibroblast lines; made in house
In short: as §1

purified HLA DRB1*0405 = biological target: T4, purified HLA DRB1*0405 (Homo sapiens, UniProt P01903+P01911, A100R/A169T/D86S/F76Y/I96L/K127E/L162R/M171V/N62H/P40V/Q125Y/R42H/S133A/S149N/S66Y/V115G/V209L/W38E); test: HLA-DR radioligand binding inhibition assay, DRB1*0405; conditions: read-out: IC50 nM purified HLA DRB1 *0405; purified HLA DRB1*0405
T4 construct: purified from EBV transformed homozygous cell lines or single MHC allele transfected 721.221, C1R, or fibroblast lines; made in house
In short: as §1

Compound	Percent of patients with responses [1] [%]	naturally processed and presented antigen [2]	Total XRN [3]	IC50 (purified HLA DRB1*0901) [nM]	IC50 (purified HLA DRB1*1302) [nM]	IC50 (purified HLA DRB1*0101) [nM]	IC50 (purified HLA DRB1*0405) [nM]
CC[C@H](C)[C@H](NC(=O)[C@@H]1CCCN1)C(=O)N[C@@H](CCCCN)C(=O)N[C@@H](Cc1c[nH]c2ccccc12)C(=O)N[C@@H](CCSC)C(=O)N[C@@H](C)C(=O)N[C@@H](CC(C)C)C(=O)N[C@@H](CCC(=O)O)C(=O)N[C@@H](CO)C(=O)N[C@H](C(=O)N[C@@H](CC(C)C)C(=O)N[C@@H](CCCNC(=N)N)C(=O)N[C@@H](CCCNC(=N)N)C(=O)N[C@@H](CCCNC(=N)N)C(=O)N[C@@H](Cc1ccccc1)C(=O)O)[C@@H](C)CC [Peptide 9019.0087]	25	naturally processed and presented antigens	13				
CC[C@H](C)[C@H](NC(=O)[C@H](Cc1c[nH]cn1)NC(=O)[C@H](CC(C)C)NC(=O)[C@H](CO)NC(=O)[C@H](Cc1ccc(O)cc1)NC(=O)[C@H](CC(C)C)NC(=O)[C@H](Cc1c[nH]cn1)NC(=O)[C@H](CCC(=O)O)NC(=O)[C@H](CC(C)C)NC(=O)[C@@H]1CCCN1C(=O)CNC(=O)[C@H](CCCNC(=N)N)NC(=O)[C@@H](N)CCC(=O)O)C(=O)N1CCC[C@H]1C(=O)N[C@@H](CC(N)=O)C(=O)O [Peptide 9019.0190, EROPLEHLYSLHIPN]	23	naturally processed peptides	8				
CC[C@H](C)[C@H](NC(=O)[C@H](CCCCN)NC(=O)[C@@H](NC(=O)[C@H](Cc1c[nH]cn1)NC(=O)[C@H](CC(N)=O)NC(=O)[C@@H]1CCCN1C(=O)[C@H](CO)NC(=O)[C@H](CCCCN)NC(=O)[C@@H](NC(=O)[C@H](CC(C)C)NC(=O)[C@@H](NC(=O)[C@H](CC(N)=O)NC(=O)[C@H](CCCNC(=N)N)NC(=O)[C@H](C)N)C(C)C)C(C)C)C(C)C)C(=O)N[C@H](C(=O)O)[C@@H](C)O				5780	15	65	10500
CC(C)C[C@H](NC(=O)[C@H](CC(N)=O)NC(=O)[C@H](CO)NC(=O)[C@@H](NC(=O)[C@H](Cc1ccccc1)NC(=O)[C@H](CS)NC(=O)[C@H](C)NC(=O)[C@@H](N)Cc1ccc(O)cc1)C(C)C)C(=O)N[C@@H](C)C(=O)N[C@H](C(=O)NCC(=O)N[C@@H](CCCNC(=N)N)C(=O)N[C@@H](CC(N)=O)C(=O)N[C@@H](CC(N)=O)C(=O)N[C@@H](CO)C(=O)O)[C@@H](C)O [Peptide 9019.0141]	25		9				
CC(C)C[C@H](NC(=O)[C@H](CO)NC(=O)[C@H](C)NC(=O)[C@H](CC(N)=O)NC(=O)[C@@H](NC(=O)[C@@H]1CCCN1C(=O)[C@H](CC(C)C)NC(=O)[C@H](Cc1ccc(O)cc1)NC(=O)[C@@H](NC(=O)[C@H](CC(C)C)NC(=O)[C@H](CCC(=O)O)NC(=O)[C@H](CC(C)C)NC(=O)[C@@H](N)CC(N)=O)[C@@H](C)O)[C@@H](C)O)C(=O)N[C@@H](CO)C(=O)N[C@@H](Cc1ccccc1)C(=O)O [Peptide 9019.0030]	15	naturally processed and presented antigens	12				
